PubChem BioAssay (NCI)
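Each compound was tested at five concentrations against cells in 96-well plates for 48 hours. TGI: total growth inhibition.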

Key:
Experiment in all cases: NCI anticancer screen, dose series, 48 h
[1] = test system: SNB-19 CNS
[2] = test system: MDA-N
[3] = test system: NCI-H226 lung
[4] = test system: SF-539 CNS
[5] = test system: RPMI-8226 leukemia
[6] = test system: SR leukemia
[7] = test system: OVCAR-3 ovarian
[8] = test system: HL-60(TB) leukemia
[9] = test system: M14 melanoma
[10] = test system: TK-10 renal
[11] = test system: UACC-257 melanoma
[12] = test system: CCRF-CEM leukemia
[13] = test system: MALME-3M melanoma
[14] = test system: HS 578T breast
[15] = test system: ACHN renal
[16] = test system: 786-0 renal
[17] = test system: HCT-116 colon
[18] = test system: A549 NSCLC
[19] = test system: MDA-MB-435
[20] = test system: UACC-62 melanoma
[21] = test system: HCT-15 colon
[22] = test system: MDA-MB-231 breast
[23] = test system: NCI-H522 lung
[24] = test system: NCI-H460 lung
[25] = test system: HCC-2998 colon
[26] = test system: MOLT-4 leukemia
[27] = test system: SNB-75 CNS
[28] = test system: SK-MEL-5 melanoma
[29] = test system: SW-620 colon
[30] = test system: T-47D breast
[31] = test system: NCI-H23 lung
[32] = test system: MCF7 breast
[33] = test system: PC-3 prostate
[34] = test system: IGROV1 ovarian
[35] = test system: OVCAR-4 ovarian
[36] = test system: COLO 205 colon
[37] = test system: A498 renal
[38] = test system: LOX IMVI melanoma
[39] = test system: OVCAR-8 ovarian
[40] = test system: SN12C renal
[41] = test system: SF-295 CNS
[42] = test system: SK-OV-3 ovarian
[43] = test system: K-562 leukemia
[44] = test system: HOP-62 NSCLC
[45] = test system: RXF 393 renal
[46] = test system: HOP-92 NSCLC
[47] = test system: SF-268 CNS
[48] = test system: SK-MEL-28 melanoma
[49] = test system: KM12 colon
[50] = test system: EKVX NSCLC
[51] = test system: HT29 colon
[52] = test system: CAKI-1 renal
[53] = test system: DU-145 prostate
[54] = test system: U251 CNS
[55] = test system: BT-549 breast
[56] = test system: SK-MEL-2 melanoma
[57] = test system: NCI/ADR-RES ovarian
[58] = test system: OVCAR-5 ovarian
[59] = test system: UO-31 renal

SMILES: C=CCOC(=O)[C@@H]1C[C@@H](OC(C)(C)C)CN1C(=O)[C@@H]1[C@H]2OC(C)(C)O[C@H]2CN1C(=O)OCC1c2ccccc2-c2ccccc21
- TGI [1]: 33 µM
- TGI [2]: 33.4 µM
- TGI [3]: 47.7 µM
- TGI [4]: 28.9 µM
- TGI [5]: 32.3 µM
- TGI [6]: 31.7 µM
- TGI [7]: 35.2 µM
- TGI [8]: 29.1 µM
- TGI [9]: 36 µM
- TGI [10]: 32.5 µM
- TGI [11]: 35.4 µM
- TGI [12]: 36.3 µM
- TGI [13]: 39.2 µM
- TGI [14]: 42.5 µM
- TGI [15]: 30.1 µM
- TGI [16]: 9.97 µM
- TGI [17]: 31.8 µM
- TGI [18]: 31.9 µM
- TGI [19]: 34.7 µM
- TGI [20]: 34.5 µM
- TGI [21]: 39.4 µM
- TGI [22]: 33.1 µM
- TGI [23]: 1.39 µM
- TGI [24]: 23.6 µM
- TGI [25]: 30.7 µM
- TGI [26]: 34.4 µM
- TGI [27]: 33.9 µM
- TGI [28]: 37 µM
- TGI [29]: 43.4 µM
- TGI [30]: 45 µM
- TGI [31]: 33.9 µM
- TGI [32]: > 100 µM
- TGI [33]: 30.8 µM
- TGI [34]: 37.6 µM
- TGI [35]: 34.1 µM
- TGI [36]: 45.7 µM
- TGI [37]: 30.5 µM
- TGI [38]: 4.87 µM
- TGI [39]: 15.3 µM
- TGI [40]: 32.2 µM
- TGI [41]: 34.4 µM
- TGI [42]: 31.6 µM
- TGI [43]: > 56.9 µM
- TGI [44]: 4.51 µM
- TGI [45]: 24.7 µM
- TGI [46]: 35 µM
- TGI [47]: 40.1 µM
- TGI [48]: 34.6 µM
- TGI [49]: 11 µM
- TGI [50]: 10.6 µM
- TGI [51]: 33.1 µM
- TGI [52]: 16.9 µM
- TGI [53]: 8.12 µM
- TGI [54]: 28.8 µM
- TGI [55]: 37.1 µM
- TGI [56]: > 55 µM
- TGI [57]: 9.87 µM
- TGI [58]: 32.9 µM
- TGI [59]: 0.614 µM

SMILES: N#CC(Cc1ccccc1Br)N(CCC1=CCCCC1)C(c1ccccc1)c1ccccc1 (stereo not drawn)
- TGI [1]: > 100 µM
- TGI [2]: > 100 µM
- TGI [5]: 83.5 µM
- TGI [7]: > 100 µM
- TGI [9]: > 100 µM
- TGI [10]: > 100 µM
- TGI [11]: > 100 µM
- TGI [13]: > 100 µM
- TGI [14]: > 100 µM
- TGI [15]: > 100 µM
- TGI [16]: > 100 µM
- TGI [17]: > 100 µM
- TGI [18]: > 100 µM
- TGI [19]: > 100 µM
- TGI [20]: > 100 µM
- TGI [21]: > 100 µM
- TGI [22]: > 100 µM
- TGI [23]: 87 µM
- TGI [24]: > 100 µM
- TGI [25]: > 100 µM
- TGI [26]: > 100 µM
- TGI [27]: > 100 µM
- TGI [28]: > 100 µM
- TGI [29]: > 100 µM
- TGI [30]: > 100 µM
- TGI [31]: > 100 µM
- TGI [32]: > 100 µM
- TGI [33]: > 100 µM
- TGI [34]: > 100 µM
- TGI [35]: > 100 µM
- TGI [36]: > 100 µM
- TGI [37]: > 100 µM
- TGI [39]: > 100 µM
- TGI [41]: > 100 µM
- TGI [42]: > 100 µM
- TGI [43]: > 100 µM
- TGI [44]: > 100 µM
- TGI [45]: > 100 µM
- TGI [46]: > 100 µM
- TGI [47]: > 100 µM
- TGI [48]: > 100 µM
- TGI [49]: > 100 µM
- TGI [50]: > 100 µM
- TGI [51]: > 100 µM
- TGI [52]: > 100 µM
- TGI [53]: > 100 µM
- TGI [54]: > 100 µM
- TGI [55]: > 100 µM
- TGI [56]: > 100 µM
- TGI [57]: > 100 µM
- TGI [58]: > 100 µM
- TGI [59]: > 100 µM

SMILES: O=[N+]([O-])c1ccc(Sc2c3ccccc3nc3ccccc23)nc1
- TGI [1]: 40.5 µM
- TGI [2]: 17.6 µM
- TGI [3]: 35.8 µM
- TGI [4]: 31.2 µM
- TGI [5]: 5.03 µM
- TGI [6]: > 21.3 µM
- TGI [7]: 11.2 µM
- TGI [9]: 10.4 µM
- TGI [10]: 6.84 µM
- TGI [11]: 19.2 µM
- TGI [12]: 5.76 µM
- TGI [13]: 6.09 µM
- TGI [14]: 60.7 µM
- TGI [15]: 20.5 µM
- TGI [16]: 4.25 µM
- TGI [17]: 4.22 µM
- TGI [18]: 43.7 µM
- TGI [19]: 21.3 µM
- TGI [20]: 29.5 µM
- TGI [21]: 12.1 µM
- TGI [22]: 15.4 µM
- TGI [23]: 8.09 µM
- TGI [24]: 42.6 µM
- TGI [25]: 32.1 µM
- TGI [26]: 8.99 µM
- TGI [27]: 29.2 µM
- TGI [28]: 30.7 µM
- TGI [29]: 4.79 µM
- TGI [30]: 6.52 µM
- TGI [31]: 19.8 µM
- TGI [32]: 9.15 µM
- TGI [33]: 28.9 µM
- TGI [34]: 30.6 µM
- TGI [35]: 12.9 µM
- TGI [36]: 6.39 µM
- TGI [37]: 32.8 µM
- TGI [38]: 4.97 µM
- TGI [39]: > 49.3 µM
- TGI [40]: 29.6 µM
- TGI [41]: 51.1 µM
- TGI [42]: 17.7 µM
- TGI [44]: 47.3 µM
- TGI [45]: 7.08 µM
- TGI [46]: 6.79 µM
- TGI [47]: 19 µM
- TGI [48]: 15.6 µM
- TGI [49]: 44.5 µM
- TGI [50]: 31 µM
- TGI [51]: 8.62 µM
- TGI [52]: 11.8 µM
- TGI [53]: 14.3 µM
- TGI [54]: 46.3 µM
- TGI [55]: 27.3 µM
- TGI [56]: 38.8 µM
- TGI [57]: 45.7 µM
- TGI [58]: 33.2 µM
- TGI [59]: 12.4 µM
